Laboratory results reported in US11091429B2, “Organic compounds” (Givaudan SA, priority 2012, dated 2021).

Key:
[1] = Tasting in spreadable cheese; settings: 0.5 PPM in spreadable cheese (Eru)
Protocol: (§1) The following formulations were prepared and tasted by trained panelists.
(§2) Samples were prepared and evaluated by expert tasters. Tasters were asked to describe the samples focusing on authentic taste, mouthfeel, fullness, salty-ness, salivation, umami, sweetness, juiciness, richness, long lastingness and fattiness.
Test on “Eru Prestige” Spreadable Cheese
Base is Eru prestige (market product)
(§3) Samples were prepared and evaluated by expert tasters. Tasters were asked to describe the samples focusing on authentic taste, mouthfeel, fullness, salivation, salty-ness, umami, sweetness, juiciness, richness, long lastingness and fattiness.

[2] = Tasting on fried potato snack product; settings: 35% fat, cheese seasoning
Protocol: as §1
A snack product consisting of a fried potato base, containing 35% fat and flavored with cheese seasoning containing salt, MSG, dairy, organic acids, sugars, and a flavour formulation. The following compounds were added to the snack product at the indicated levels and the tasting results are reported: […]

[3] = Test in chocolate flavoured drink; settings: 2 ppm; water, 4% sucrose, chocolate flavour 0.03%
Protocol: as §2
Test in Chocolate Flavoured Drink:
Base: Water, 4% sucrose, proprietary chocolate flavor at 0.03%
Samples were evaluated by expert tasters. Tasters were asked to describe the samples focusing on authentic taste, mouthfeel, fullness, salty-ness, salivation, umami, sweetness, juiciness, richness, long lastingness and fattiness.
Test in Chocolate Flavoured Drink Flavoured
Base: Water, 4% sucrose, proprietary chocolate flavour @ 0.03%

Tasting in pilaf = settings: cooked rice with 10% of the butter flavoured at 1 ppm
Protocol: as §1

Tasting in cheese sauce = settings: 0.5 PPM in cheese sauce 5% fat 1.6% salt
Protocol: as §1
Cheese sauce: 5% fat 1.6% salt
as §3
Cheese Sauce: 5% Fat 1.6% Salt

[4] = Test on organic acids in a beverage; settings: 1 ppm, water, 7% sucrose
Protocol: 14—Testing with Beverages Containing Organic Acids from 0.01% to 7%
Test 18:2 Gaba on Organic Acids in a Beverage.
In a solution containing water, 7% sucrose by weight, and different organic acids, 18:2 gaba was added at 1 ppm. We observed taste effects on the acid perception upon addition of 18:2 gaba.
Base is water, 7% Sucrose by weight, Tartaric acid at 0.121% by weight
Base is water, 7% Sucrose by weight, Malic acid at 0.1081% by weight
Base is water, 7% Sucrose by weight, Citric acid at 0.1% by weight
Base is water, 7% Sucrose by weight, Fumaric acid at 0.0936% by weight

[5] = Tasting in Activa strawberry yoghurt; settings: 2 ppm, 13.5% sugar, 3.2% fat
Description: Activa Strawberry Yoghurt
In a Full fat, Activa strawberry flavoured yoghurt containing 13.5% sugar, 3.2% fat C18:2-gaba and C18:0-leu at 2 ppm

[6] = Tasting in vanilla flavoured milk 3.0% fat; settings: 2 ppm, 4% sugar, vanillin 10 ppm, vanilla extract 0.03%
Protocol: Vanilla Flavoured Milk 3.0% Fat
In a 3% fat milk drink, sweetened with 4% sucrose by weight, flavoured with Vaniline @ 10 ppm and a Vanilla extract @ 0.03% C18:2-gaba, C18:1-ACOA and C18:1-glu were added at 0.5 or 2 ppm.
(§4) Samples were evaluated by expert tasters. Tasters were asked to describe the samples focusing on authentic taste, mouthfeel, fullness, salivation, sweetness, juiciness, richness, long lastingness and fattiness.
Base: Milk 3% fat, 4% sugar, vanillin 10 ppm, vanilla extract 0.03%

[7] = Tasting of chicken filet fried in oil
Protocol: as §1
Differentiator high temperature 100-250 degrees Celsius in a frying in oil process
C18:2 gaba @ 2.0 PPM in 135 gram frying oil (blue band 82% Fat) 450 gram chicken filet 2 minutes high fire and 5 minutes medium fire.

[8] = Tasting in chocolate milk
Protocol: Chocolate Milk with Different Fat Content […]
as §4

[9] = Tasting in yoghurt, cream flavoured; settings: 2 ppm, cream flavour 0.03%
Protocol: Yoghurt Cream Flavoured, Non-Sweetened and Different Fat Levels
In a Yoghurt containing 0% 1.5% and 3% fat, flavoured with proprietary cream flavour dosed at 0.03%, C18:2-gaba was added at 2 ppm. Samples were evaluated by expert tasters. Tasters were asked to describe the samples focusing on authentic taste, acidity, mouthfeel, fullness, salivation, sweetness, juiciness, richness, long lastingness and fattiness.

In the case of `CCCCC/C=C\C/C=C\CCCCCCCC(=O)NCCCC(=O)O` [C18:2-gaba], the tasting result [1] is reported as “full salty, much more cheese bite, umami, lingering, long lasting”, the tasting result ([1]; listed as C18:2 gaba) is reported as “Full, Salty, cheese bite, more mature” and the tasting result ([2]; 0.5 ppm on fried potato snack) is reported as “increased dairy, cheesy”. The tasting result ([2]; 1 ppm on fried potato snack) was “Fatty full, cheesy, cheese crust, long lasting”, the tasting result [3] was “full, sweeter, more vanillic, milk chocolate is enhanced, very long lasting” and the tasting result (Tasting in pilaf) was “more mouthfeel, with a lingering creamy authentic butter taste”. The tasting result (Tasting in cheese sauce) was “Full, Salty, cheese bite expanding”, the tasting result ([4]; citric acid 0.1% by weight) was “decreased sharp acidic perception, full body mouth feel, higher higher mouthwatering, and an impression of the juicy notes of citrus fruit (orange, lemon)” and the tasting result ([4]; fumaric acid 0.0936% by weight) was “decreased sharp acidic perception, full body mouthfeel effects, higher sweet effects, and an impression of the full notes characteristic of sweet red & vanillic flavor types (vanilla, chocolate, raspberry, cherry, especially benzaldhyde)”. For the same compound, the tasting result ([4]; malic acid 0.1081% by weight) was “decreased sharp acidic perception, give fuller body, mouthfeel, higher mouthwatering, and an impression of the flesh and skin notes of fruit (apple)”, the tasting result ([4]; tartaric acid 0.121% by weight) was “decreased sharp acidic perception, full body mouthfeel, higher mouthwatering, more immediate (upfront hit), and an impression of the flesh of fruit (grape, apple, banana, pear-like)” and the tasting result [5] was “very creamy, full and fresh strawberry”. For the same compound, the tasting result [6] was “beany, fatty, authentic, sweet”, the “taste of the frying oil” value ([7]; 2.0 PPM in 135 gram frying oil (blue band 82% Fat)) was “more savoury golden brown notes” and the “taste of the chicken” value ([7]; 2.0 PPM in 135 gram frying oil, 450 gram chicken filet, 2 minutes high fire and 5 minutes medium fire) was “more juicy, succulent, lingering more white meat”. The tasting result ([8]; 0.5 ppm, chocolate milk 1.8% fat) was “stronger cocoa note, more chocolate vs cocoa”, the tasting result ([8]; 0.5 ppm, chocolate milk 3% fat) was “very creamy, enhanced cocoa note” and the tasting result ([8]; 1 ppm, chocolate milk 1.8% fat) was “very creamy, chocolate, long-lasting creamy and chocolate taste”. For the same compound, the tasting result ([8]; 1 ppm, chocolate milk 3% fat) was “very creamy, lasting, sweet, almost taste like chocolate ice cream”, the tasting result ([9]; yoghurt 0% fat) was “less acidic, slight creamy aftertaste” and the tasting result ([9]; yoghurt 1.5% fat) was “very creamy, thick, nice long lasting, whipped cream note”. For the same compound, the tasting result ([9]; yoghurt 3% fat) was “less acidic, much more creamy, very long lasting creamy aftertaste”.
